Earlier results on 4 compounds are cited in patent US20220257548A1, “ORAL COMBINATION DRUG FORMULATION COMPRISING A NON-STEROIDAL ANTI-INFLAMMATORY DRUG AND A COMPLEMENTARY LOW DOSE OF TRANEXAMIC ACID FOR THE TREATMENT OF MENSTRUAL PAIN ACCOMPANIED WITH EXCESSIVE MENSTRUAL BLOOD LOSS” (ARSTAT, INC, priority 2011, published 2022).

Where two headings read alike, the source gives them in different places.

The subject of data set [1] is menstrual blood loss (MBL) in women with menorrhagia. Particulars: for mean percent change in MBL: Lysteda clinical study.
For data set [2] the following is noted: 6 g/day.
The subject of data set [3] is menstrual blood loss (MBL) in women.

Take `NC[C@H]1CC[C@H](C(=O)O)CC1` [tranexamic acid]: in data set [1] (3900 mg/day regimen), the “limitations on social, leisure and physical activities” value is recorded as “significantly reduces”. Moreover, in data set [1] (Lysteda NDA medical review), the “difference versus placebo in reduction of large stains, small and large clots and changes in serum ferritin levels” value was “no statistically significant differences”; the “subjects returned to normal MBL after treatment (mean on-treatment MBL of less than 80 mL)” value is 44%. Also, the “mean percent change in MBL” value in data set [1] (oral tranexamic acid 1950 mg/day regimen) is “approximately 25%”. The “mean percent change in MBL” value in data set [1] (oral tranexamic acid 3900 mg/day dose) is 39%. Moreover, in data set [2], the “risk of gastrointestinal adverse events” value is “increased”.

In the case of `Cc1cccc(Nc2ccccc2C(=O)O)c1C` [mefenamic acid], the “reduction in MBL” value in data set [3] (500 mg three times daily during the menstrual period, women clinically diagnosed with menorrhagia (baseline MBL>80 mL)) is recorded as 30%; in data set [3] (500 mg three times daily during the menstrual period, women with no clinical diagnosis of menorrhagia (baseline MBL<80 mL)), 19%.

In the case of `CC(C)Cc1ccc(C(C)C(=O)O)cc1` (centres unmarked) [ibuprofen], the “reduction in MBL” value in data set [3] (200 mg administered three times daily) is given as 16%; in data set [3] (400 mg administered four times daily), 32%.

As for `O=C(O)Cc1ccccc1Nc1c(Cl)cccc1Cl` [diclofenac sodium], the “reduction in MBL” value in data set [3] (50 mg four times daily on Day 1 and three times on the following four days of the menstrual period) was 24%.
